Counter-ions that a name gives are not always drawn. Like-named read-outs stand apart in the source and are kept apart here. Values belong to the compound of their own block, whether it stands above or below them.
Columns and labels:
human nose [1] = settings: cited from earlier work; for Olfactory Power (pOl): in air, pOl=−log [odorant] as volumetric fraction; for Olfactory Power (p. ol): Table 4
[2] = Odorant vapor pressure and odorant-hydrogen phase equilibrium (Raoult's Law)
Method: To quantitatively validate the concentration of an odorant in the gas phase at high pressure, first order phase equilibrium equations may be used.
It is also assumed that the odorant is saturated. This means that at the constant pressure when odorant is added, the amount of odorant in the vapor phase remains constant. The equation used to find the fraction of the vapor phase taken solely by the odorant is Raoult's Law: xAPA^sat=yAP
Where, xA is the odorant's fraction of the liquid phase, yA is the odorant's fraction of the vapor phase, PA^sat is the vapor pressure of the saturated odorant, and P is the total pressure within the system.
With these values, the concentration of odorant may be found at ambient conditions for the storage conditions of 6,000 psi. To calculate the pressure needed to produce a certain saturated concentration of odorant in the vapor phase: […]

[3] = @ 25° C.; cited from earlier work
human nose [4] = assay: Standard human olfactory power / odor threshold; type: in vivo; settings: for Odorant Threshold: minimum detection concentration
Excerpt: Another important property of an odorant is its odor threshold. A suitable odorant should be detectable by the human nose at very low concentrations. […] To ensure simultaneous outflow in case of a leak, both components should be in the same phase and well blended. Some odor threshold values may be found in the Handbook of Hazardous Chemical Properties. In addition, the American Industrial Hygiene Association (AIHA) publishes a book of odor threshold values (Odor Thresholds for Chemicals with Established Occupational Health Standards).
Certain functional groups, such as the mercaptans, have high potency odors. According to published standardized human olfactory thresholds, mercaptans are among the strongest smelling compounds known. The stench of mercaptans is a key reason why these compounds were chosen for natural gas odorization. The following is a list of functional groups that may be used to highlight key factors for olfactory thresholds in humans. Standard olfactory power refers to the minimum concentration at which a particular compound is detectable by the average person. The mathematical definition is given as the negative log of odorant concentration expressed in volumetric fraction: pOl=−log [odorant]. Based on this definition an olfactory power of “0/6/9” corresponds to “odorlessness/1 ppm/1 ppb” threshold levels, respectively.

average weight person = settings: cited from earlier work

SMILES: CCCO [Odorant 1-propanol, 1-propanol]
Olfactory Power (pOl) (human nose [1]): 5.62

SMILES: CC=O [acetaldehyde]
Olfactory Power (pOl) (human nose [1]): 6.73

SMILES: CC(C)=O [acetone]
Olfactory Power (pOl) (human nose [1]): 4.84

SMILES: CCCC [butane]
Olfactory Power (pOl) (human nose [1]): 3.69

SMILES: CCNCC [diethylamine]
Olfactory Power (pOl) (human nose [1]): 6.73

SMILES: CC[Se]CC [diethylselenide, diethyl selenide]
Olfactory Power (pOl) (human nose [1]): 9.13

SMILES: CCSCC [diethylsulfide]
Olfactory Power (pOl) (human nose [1]): 8.41

SMILES: C[Se]C [dimethyl selenide]
Saturated Odorant Concentration yA ([2]; @ 6000 psi, 25° C.): 773 ppm
Odorant Vapor Pressure PA^SAT [3]: 4.6 psi

SMILES: CNC [dimethylamine, dimethyl amine]
Olfactory Power (pOl) (human nose [1]): 7.09
Odorant Threshold (human nose [4]; Table 4): 0.08128 ppm
Saturated Odorant Concentration yA [2]: 4892 ppm
‘B’ Saturated Odorant Loading [6000 psi H2] [2]: 4892 ppm
Odorant Vapor Pressure PA^SAT [3]: 29.4 psi

SMILES: CSC [dimethylsulfide]
Olfactory Power (pOl) (human nose [1]): 8.65

SMILES: CC [ethane]
Olfactory Power (pOl) (human nose [1]): 2.00

‘B’ Saturated Odorant Loading [6000 psi H2] ([2]; PA^sat/P × 10^6 at 6000 psi): 190 ppm
concentration in the vapor phase ([2]; at 6000 psi): ≤ 190 ppm
SMILES: CCO [ethanol]
Olfactory Power (pOl) (human nose [1]): 4.54
Odorant Threshold (human nose [4]; Table 4): 28.840 ppm

Saturated Odorant Concentration yA ([2]; @ 6000 psi, 25° C.): 1705 ppm
‘B’ Saturated Odorant Loading [6000 psi H2] ([2]; PA^sat/P × 10^6 at 6000 psi): 1705 ppm
SMILES: CCS [ethyl mercaptan]
Olfactory Power (p. ol) (human nose [1]): 8.97
Olfactory Power (pOl) (human nose [1]): 8.97
times higher detectability as compared to ethanol (human nose [4]; FIG. 3): 30,000 times
Odorant Threshold (human nose [4]; Table 3): 0.00107 ppm
Odorant Threshold (human nose [4]; Table 4): 0.001072 ppm
Odorant Vapor Pressure PA^SAT [3]: 10.2 psi

SMILES: CC[SeH] [ethyl selenol]
Olfactory Power (pOl) (human nose [1]): 10.74
times higher detectability as compared to ethyl mercaptan (human nose [4]; FIG. 3): 67 times
Odorant Threshold (human nose [4]; Table 4): 0.000018 ppm
detectability (human nose [4]; based on its olfactory power): 1.8E-5 ppm
Odorant Vapor Pressure PA^SAT ([2]; @ 25° C., estimated value based on known vapor pressures of structurally similar compounds): ~5 psi
Saturated Odorant Concentration yA ([2]; @ 6000 psi, 25° C.): ~833 ppm
‘B’ Saturated Odorant Loading [6000 psi H2] ([2]; PA^sat/P × 10^6 at 6000 psi): 833 ppm

SMILES: CCN [ethylamine, ethyl amine]
Olfactory Power (pOl) (human nose [1]): 6.49

‘B’ Saturated Odorant Loading [6000 psi H2] ([2]; PA^sat/P × 10^6 at 6000 psi): 3256 ppm
SMILES: CCCl [ethylchloride]
Olfactory Power (pOl) (human nose [1]): 5.39
Odorant Threshold (human nose [4]; Table 4): 4.074 ppm

SMILES: CC(C)CS [isobutyl mercaptan]
Olfactory Power (pOl) (human nose [1]): 8.95

SMILES: CO [methanol]
Olfactory Power (pOl) (human nose [1]): 3.85

SMILES: COC(C)=O [methyl acetate]
Olfactory Power (pOl) (human nose [1]): 5.21

SMILES: COC=O [methyl formate]
Olfactory Power (pOl) (human nose [1]): 4.03

SMILES: CS [methyl mercaptan]
Olfactory Power (pOl) (human nose [1]): 8.98

SMILES: CN [methylamine, methyl amine]
Olfactory Power (pOl) (human nose [1]): 7.73
Odorant Threshold (human nose [4]; Table 4): 0.01862 ppm
‘B’ Saturated Odorant Loading [6000 psi H2] ([2]; PA^sat/P × 10^6 at 6000 psi): 8543 ppm

SMILES: CCSC [methylethylsulfide]
Olfactory Power (pOl) (human nose [1]): 8.42

SMILES: CCC [propane]
Olfactory Power (pOl) (human nose [1]): 2.57

SMILES: CCCN [propylamine, propyl amine]
Olfactory Power (pOl) (human nose [1]): 7.96
Odorant Threshold (human nose [4]; Table 4): 0.01097 ppm
Saturated Odorant Concentration yA ([2]; @ 6000 psi, 25° C.): 999 ppm
‘B’ Saturated Odorant Loading [6000 psi H2] ([2]; PA^sat/P × 10^6 at 6000 psi): 999 ppm
Odorant Vapor Pressure PA^SAT [3]: 6.0 psi

SMILES: c1ccncc1 [pyridine]
Olfactory Power (p. ol) (human nose [1]): 7.07
Odorant Threshold (human nose [4]; Table 4): 0.08511 ppm
Saturated Odorant Concentration yA [2]: 67 ppm
maximum concentration in the vapor/gas phase [2]: 67 ppm
‘B’ Saturated Odorant Loading [6000 psi H2] [2]: 67 ppm
Odorant Vapor Pressure PA^SAT [3]: 0.4 psi

SMILES: [Se] [selenium]
ingested quantity at which selenosis occurs (average weight person): 5 mg/day

Saturated Odorant Concentration yA ([2]; @ 6000 psi, 25° C.): 583 ppm
maximum concentration in the vapor/gas phase ([2]; at 6000 psi): approximately 580 ppm
SMILES: CC(C)(C)S [t-butyl mercaptan]
Olfactory Power (pOl) (human nose [1]): 9.48

SMILES: CN(C)C [trimethyl amine]
Saturated Odorant Concentration yA ([2]; @ 6000 psi, 25° C.): 5172 ppm
Odorant Vapor Pressure PA^SAT [3]: 31.0 psi

From patent US7811688B2 (Enersol, Inc. N.A., LP, priority 2002, dated 2010)
